According to paper PMC2873402, “Discovery of High-Affinity Protein Binding Ligands – Backwards” (PLoS ONE, 2010):
Entries after “also recorded” stand apart in the source; their conditions may differ. Bridge positions count the residues as written; N and C are the ends. Ends that are not written are not given here. I, II: the chains in the order shown. * marks the point of attachment. StBu = CC(C)(C)S*

Tests used:
[1] = tested on: 8,303 recombinant human proteins; assay: Protein array (ProtoArray) screen of synbodies; assay type: binding; details: 200 nM biotin synbody, Alexa-555 streptavidin detection, background-subtracted fluorescence
Text: To test this approach, a candidate synbody was constructed using two peptides, […] and […], referred to as peptides 1 and 2, respectively. The sequences of the first 17 aa of these peptides were generated using a random number generator and three constant positions on the C-terminus that served as a spacer between the linker scaffold and the active portion of each peptide. A divergent synthetic method was used in which peptide 1 was synthesized from C to N terminus from the α-amine of lysine and peptide 2 was synthesized from the ε-amine of lysine (Figure 2A, Materials and Methods S1, Figure S1). The synbody was tagged on the C-terminus with biotin and screened against a Life Technologies ProtoArray™. ProtoArrays are nitrocellulose coated slides onto which 8,303 recombinant human proteins have been spotted. After a 2-hour incubation, the array was washed and bound synbody was detected using fluorescently labeled streptavidin. […]
Synbodies were screened on an Invitrogen ProtoArray™ (Life Technologies, Carlsbad, CA, USA) detected with Alexa-555 labeled streptavidin (Life Technologies), and scanned using a Perkin Elmer ProScan Array HTP. The spots were analyzed using GenePix Pro (Molecular Devices, Sunnyvale, CA, USA) and data were processed using Genespring GX (Agilent Technologies, Santa Clara, CA, USA). […]

AKT3 = assay: Protein array (ProtoArray), binding to AKT3; set-up: species or system human
Method: Synbodies were screened on an Invitrogen ProtoArray™ (Life Technologies, Carlsbad, CA, USA) detected with Alexa-555 labeled streptavidin (Life Technologies), and scanned using a Perkin Elmer ProScan Array HTP. The spots were analyzed using GenePix Pro (Molecular Devices, Sunnyvale, CA, USA) and data were processed using Genespring GX (Agilent Technologies, Santa Clara, CA, USA). Synbodies were labeled with biotin using either Maleimide-PEG2-Biotin (Thermo Pierce, Rockford, IL, USA) to label the C-terminal cysteine or biotin was incorporated during synbody synthesis by replacing the C-terminal cysteine with Lys-biotin (Novabiochem, San Diego, CA, USA). Synbodies were screened on the array using the recommended protocol with the following modifications: the arrays were blocked with 5 mL blocking buffer (50mM HEPES pH 7.5, 200 mM NaCl, 0.08% Triton X-100, 25% Glycerol, 20mM reduced Glutathione, 1.0mM DTT, 1% BSA) for 90 min. A 200 nM synbody solution was incubated in probing buffer (1× PBS, 1% BSA, 0.1% Tween) for 90 minutes. Slides were dried by centrifugation at 200g for 1 minute and scanned at 100% laser power and 70% photomultiplier voltage. The gal file was obtained for each array by submitting the barcode of the array to www.invitrogen.com/protoarray.
Heat maps were constructed using median-normalized data from each ProtoArray. […]

AKT2 = assay: IP of AKT isoforms spiked into A549 lysate: AKT2; assay type: binding; details: 250 ng of each isoform in 500 µg A549 lysate, Western Blot
Method: This apparent specificity was investigated further by performing an IP using 250 ng of each isoform of AKT spiked into 500 µg of A-549 cell lysate.
(§1) For all IP experiments, either a 1 µM or 250 nM solution of biotin-conjugated synbody was captured on 20 µL of streptavidin coated paramagnetic M-280 Dynabeads (Life Technologies) according to the manufacturers protocol. Synbody coated beads were washed five times with 1 mL of 100 mM phosphate buffered saline containing 0.05% Tween-20 (PBST) and incubated overnight at 4°C with shaking in the desired amount of target protein in A549 cell lysate. For Kd determination experiments, serial dilutions of AKT1 or ABL1 were prepared in binding buffer. After binding, beads were washed five times with 1 mL of PBST and heated at 70°C in 20 µL of 1× LDS loading buffer (Invitrogen) for 10 minutes. The samples were analyzed by SDS-PAGE gel with Western Blot detection using the appropriate antibody and imaged on a GE Healthcare Typhoon Trio.

AKT1 [2] = biological target: T1, AKT1 (Homo sapiens, UniProt P31749); assay: SPR screening against immobilized AKT1; assay type: binding; set-up: purchased Life Technologies; details: 100 nM synbody, Biacore T-100, CM5 amine coupling, 25°C immobilization, 90 s association, 240 s dissociation
T1 sequence (P31749 whole entry): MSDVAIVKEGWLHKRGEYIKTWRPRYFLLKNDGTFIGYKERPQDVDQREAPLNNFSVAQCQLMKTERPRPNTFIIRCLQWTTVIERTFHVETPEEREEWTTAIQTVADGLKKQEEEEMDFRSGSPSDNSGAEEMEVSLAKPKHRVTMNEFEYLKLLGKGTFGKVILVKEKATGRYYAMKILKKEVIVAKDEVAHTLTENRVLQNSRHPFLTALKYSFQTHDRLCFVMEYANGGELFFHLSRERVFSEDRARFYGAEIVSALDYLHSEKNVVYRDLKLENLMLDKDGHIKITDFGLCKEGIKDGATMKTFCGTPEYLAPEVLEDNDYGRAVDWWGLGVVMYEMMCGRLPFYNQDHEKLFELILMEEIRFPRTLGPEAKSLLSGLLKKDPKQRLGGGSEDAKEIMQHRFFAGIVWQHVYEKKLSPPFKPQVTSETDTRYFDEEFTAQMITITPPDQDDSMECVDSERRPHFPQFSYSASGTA
Method: The synbody (100nM concentration) was screened by Surface Plasmon Resonance (SPR) against immobilized AKT1 and GRP58 on a Biacore T-100 SPR. The synbody appeared to have high affinity for AKT1 and low affinity for GRP58 (Figure S2). To accurately determine the binding kinetics of the synbody-AKT1 complex, several concentrations of synbody were injected over a low-density surface of biotin-labeled AKT1 captured on a Neutratvidin SPR chip using a Biacore A-100.
SPR screening of the synbody against AKT1 and GRP58 was performed on a Biacore T-100 (GE Healthcare, Piscataway, NJ, USA). The series S sensor chip CM5, amine coupling reagents and HBS-EP were obtained from GE Healthcare. A standard amine immobilization protocol was performed at 25°C using NaHCO3 (10mM in 150mM NaCl, pH 4.5) as the immobilization buffer. The CM-5 dextran chip was activated by a 10 minute injection of a freshly prepared 1∶1 solution of 400 mM 1-ethyl-3-(3-dimethylaminopropyl)-carbodimide (EDC): 100 mM N-hydroxysuccimide (NHS) in water. The NHS-carboxy groups of the dextran surface were treated with a solution of AKT1 or GRP58 (25 µg/ml) in sodium acetate (pH 5.0) for 8 mins at a flow rate of 10 µl/min. Any residual active sites were then quenched by a 5 min pulse of ethylene diamine (1M, pH 8.5). […]

AKT1 [3] = biological target: T1, AKT1; assay: IP of endogenous AKT1 from A549 lysate; assay type: binding; set-up: N-terminal vector leader of pEXP5-NT (6xHis + TEV site by own knowledge of the vector); made in house; host or cells: Expressway Mini Cell-Free Expression System (in vitro translation); details: un-stimulated A549 lysate, 25 pmols synbody
Method: As a preliminary test of specificity, 200 ng of AKT1 (33.2 nM) was spiked into increasing amounts of cell lysate prepared from un-stimulated A549 lung epithelial cells and streptavidin beads coated with 25 pmols of synbody (7.6∶1 synbody-to-AKT1 ratio) were used to pull down AKT1 using the same IP procedure and Western Blot protocol as before.
as §1

binding to AKT3 on protein array (AKT3): little binding
affinity for AKT1 by SPR screening (AKT1 [2]): high affinity
Substance: I: AHKVVPQRQIRHAYNRYGSGKC(StBu)-NH2 / II: FRGWAHIFFGPHVIYRGGSG (amide I:21-II:C) [synbody]
proteins bound on protein array [1]: bound few proteins on the array; also recorded: bound several different proteins including PCCA, CASZ1, GRP58, NOB1, and AKT1
IP of AKT2 (isoform selectivity) (AKT2): relatively little
precipitation of endogenous AKT1 (AKT1 [3]): precipitates the very low level endogenous AKT1 from the un-stimulated cell lysate
